Values quoted from earlier work in US20120142546A1, “HYPOMETHYLATED GENES IN CANCER” (THE JOHNS HOPKINS UNIVERSITY, priority 2007, published 2012).

System: cancers involving the lung, esophagus, or pleura

## Nc1ncn([C@H]2C[C@H](O)[C@@H](CO)O2)c(=O)n1 [5-aza-2′-deoxycytidine]
  NY-ESO-1 and MAGEA3 expression in treated patients: upregulated in a proportion of patients
